“And” between values parts separate entries of the source, which are not always exact repeats. Equal entries are not always repeated. Toxic doses and inconclusive results are not listed. No stated cut-off is given here; in the data, active means T/C of 150% or more; inactive means T/C below 125%.
Tested on: L1210 leukemia ip in BDF1 mice, survival T/C
Assay: NCI In Vivo Anticancer Drug Screen. Data for tumor model L1210 Leukemia (intraperitoneal) in B6D2F1 (BDF1) mice
Conditions: endpoint: mean survival time, higher = longer survival
Procedure, shortened: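 Each compound was tested against a transplantable tumor grown in mice. The endpoint was survival, with treated animals benchmarked against vehicle controls as a simple ratio.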

Measured: T/C

N=[N+]=CC(=O)CCC(NC(=O)C(CCC(=O)C=[N+]=N)NC(=O)CCC(N)C(=O)O)C(=O)O (stereo unspecified)
active: dose: 0.07 mg/kg/injection, schedule: Q01DX009 (ip), vehicle: water 156 % of control | dose: 0.2 mg/kg/injection, schedule: Q01DX017 (ip), vehicle: saline 158 % of control | dose: 0.4 mg/kg/injection, schedule: Q01DX015 (ip), vehicle: water 153 % of control | dose: 0.6 mg/kg/injection, schedule: Q01DX015 (ip), vehicle: water 183 % of control | dose: 1.0 mg/kg/injection, schedule: Q02DX005 (ip), vehicle: other 160 % of control | dose: 1.0 mg/kg/injection, schedule: Q02DX005 (oral), vehicle: other 163 % of control | dose: 1.25 mg/kg/injection, schedule: Q02DX008 (ip), vehicle: other 189 % of control | dose: 1.25 mg/kg/injection, schedule: Q02DX008 (ip), vehicle: water 166 % of control | dose: 1.25 mg/kg/injection, schedule: Q02DX008 (oral), vehicle: water 156 % of control | dose: 2.0 mg/kg/injection, schedule: Q02DX005 (oral), vehicle: other 186 % of control | dose: 2.5 mg/kg/injection, schedule: Q02DX008 (oral), vehicle: water 154 % of control | dose: 4.0 mg/kg/injection, schedule: Q02DX005 (ip), vehicle: other 176 % of control | dose: 4.0 mg/kg/injection, schedule: Q02DX005 (oral), vehicle: other 195 % of control | dose: 5.0 mg/kg/injection, schedule: Q02DX008 (ip), vehicle: other 206 % of control | dose: 5.0 mg/kg/injection, schedule: Q04DX003 (ip), vehicle: other 155 % of control | dose: 5.0 mg/kg/injection, schedule: Q04DX003 (ip), vehicle: saline 170 % of control | dose: 6.0 mg/kg/injection, schedule: Q02DX005 (ip), vehicle: other 197 % of control | dose: 6.0 mg/kg/injection, schedule: Q02DX005 (oral), vehicle: other 204 % of control | dose: 6.2 mg/kg/injection, schedule: Q03HX024 (ip), vehicle: water 193 % of control | dose: 8.0 mg/kg/injection, schedule: Q02DX005 (ip), vehicle: other 183 % of control | dose: 8.0 mg/kg/injection, schedule: Q02DX005 (oral), vehicle: other 200 % of control | dose: 10.0 mg/kg/injection, schedule: Q02DX008 (oral), vehicle: other 166 % of control | dose: 10.0 mg/kg/injection, schedule: Q04DX003 (ip), vehicle: other 155 % of control and 173 % of control | dose: 10.0 mg/kg/injection, schedule: Q04DX003 (ip), vehicle: saline 192 % of control | dose: 10.0 mg/kg/injection, schedule: Q04DX003 (ip), vehicle: water 167 % of control | dose: 15.0 mg/kg/injection, schedule: Q## X003 (ip), vehicle: water 185 % of control | dose: 20.0 mg/kg/injection, schedule: Q04DX003 (ip), vehicle: other 166 % of control | dose: 20.0 mg/kg/injection, schedule: Q04DX003 (ip), vehicle: saline 188 % of control | dose: 20.0 mg/kg/injection, schedule: Q04DX003 (ip), vehicle: water 167 % of control and 171 % of control | dose: 20.0 mg/kg/injection, schedule: Q## X006 (ip), vehicle: water 156 % of control | dose: 25.0 mg/kg/injection, schedule: Q07DX002 (ip), vehicle: water 156 % of control and 167 % of control | dose: 30.0 mg/kg/injection, schedule: Q04DX003 (ip), vehicle: other 202 % of control | dose: 30.0 mg/kg/injection, schedule: Q## X003 (ip), vehicle: water 209 % of control | dose: 40.0 mg/kg/injection, schedule: Q04DX003 (ip), vehicle: saline 170 % of control | dose: 40.0 mg/kg/injection, schedule: Q04DX003 (ip), vehicle: water 200 % of control and 206 % of control | dose: 40.0 mg/kg/injection, schedule: Q## X003 (ip), vehicle: water 194 % of control | dose: 40.0 mg/kg/injection, schedule: Q## X006 (ip), vehicle: water 188 % of control | dose: 50.0 mg/kg/injection, schedule: Q01DX001 (ip), vehicle: saline 150 % of control | dose: 50.0 mg/kg/injection, schedule: Q07DX002 (ip), vehicle: other 158 % of control | dose: 50.0 mg/kg/injection, schedule: Q## X003 (ip), vehicle: water 178 % of control | dose: 60.0 mg/kg/injection, schedule: Q04DX003 (ip), vehicle: water 195 % of control | dose: 60.0 mg/kg/injection, schedule: Q## X003 (ip), vehicle: water 185 % of control | dose: 75.0 mg/kg/injection, schedule: Q07DX002 (ip), vehicle: water 192 % of control | dose: 80.0 mg/kg/injection, schedule: Q04DX003 (ip), vehicle: water 159 % of control | dose: 100.0 mg/kg/injection, schedule: Q01DX001 (ip), vehicle: clinical formulation 153 % of control | dose: 100.0 mg/kg/injection, schedule: Q07DX002 (ip), vehicle: other 171 % of control | dose: 100.0 mg/kg/injection, schedule: Q07DX002 (ip), vehicle: water 194 % of control | dose: 150.0 mg/kg/injection, schedule: Q07DX002 (ip), vehicle: water 194 % of control | dose: 200.0 mg/kg/injection, schedule: Q01DX001 (ip), vehicle: other 158 % of control | dose: 200.0 mg/kg/injection, schedule: Q01DX001 (oral), vehicle: other 155 % of control
inactive: dose: 0.01 mg/kg/injection, schedule: Q01DX009 (ip), vehicle: water 114 % of control | dose: 0.02 mg/kg/injection, schedule: Q01DX009 (ip), vehicle: other 110 % of control | dose: 0.02 mg/kg/injection, schedule: Q01DX015 (ip), vehicle: water 93 % of control | dose: 0.05 mg/kg/injection, schedule: Q01DX009 (ip), vehicle: other 102 % of control and 115 % of control | dose: 0.05 mg/kg/injection, schedule: Q01DX015 (ip), vehicle: water 102 % of control | dose: 0.05 mg/kg/injection, schedule: Q01DX017 (ip), vehicle: saline 98 % of control and 106 % of control | dose: 0.05 mg/kg/injection, schedule: Q02DX009 (ip), vehicle: saline 98 % of control | dose: 0.05 mg/kg/injection, schedule: Q03HX024 (ip), vehicle: water 93 % of control | dose: 0.1 mg/kg/injection, schedule: Q01DX009 (ip), vehicle: other 117 % of control | dose: 0.1 mg/kg/injection, schedule: Q01DX015 (ip), vehicle: water 108 % of control | dose: 0.1 mg/kg/injection, schedule: Q01DX017 (ip), vehicle: saline 123 % of control | dose: 0.1 mg/kg/injection, schedule: Q02DX009 (ip), vehicle: saline 116 % of control | dose: 0.1 mg/kg/injection, schedule: Q04DX005 (ip), vehicle: saline 102 % of control | dose: 0.2 mg/kg/injection, schedule: Q01DX009 (ip), vehicle: other 107 % of control | dose: 0.2 mg/kg/injection, schedule: Q02DX009 (ip), vehicle: saline 123 % of control | dose: 0.2 mg/kg/injection, schedule: Q04DX005 (ip), vehicle: saline 104 % of control | dose: 0.2 mg/kg/injection, schedule: Q08DX003 (ip), vehicle: saline 112 % of control | dose: 0.4 mg/kg/injection, schedule: Q01DX015 (ip), vehicle: other 117 % of control | dose: 0.4 mg/kg/injection, schedule: Q01DX017 (ip), vehicle: saline 110 % of control and 123 % of control | dose: 0.4 mg/kg/injection, schedule: Q04DX005 (ip), vehicle: saline 121 % of control | dose: 0.4 mg/kg/injection, schedule: Q08DX003 (ip), vehicle: saline 107 % of control | dose: 0.8 mg/kg/injection, schedule: Q04DX005 (ip), vehicle: saline 118 % of control | dose: 0.8 mg/kg/injection, schedule: Q08DX003 (ip), vehicle: saline 109 % of control | dose: 1.0 mg/kg/injection, schedule: Q01DX009 (oral), vehicle: water 96 % of control | dose: 1.6 mg/kg/injection, schedule: Q08DX003 (ip), vehicle: saline 110 % of control | dose: 10.0 mg/kg/injection, schedule: Q02DX008 (ip), vehicle: other 117 % of control | dose: 12.5 mg/kg/injection, schedule: Q01DX001 (ip), vehicle: clinical formulation 112 % of control | dose: 12.5 mg/kg/injection, schedule: Q01DX001 (ip), vehicle: saline 119 % of control and 122 % of control | dose: 12.5 mg/kg/injection, schedule: Q03HX024 (ip), vehicle: water 97 % of control | dose: 15.0 mg/kg/injection, schedule: Q02DX008 (oral), vehicle: other 104 % of control | dose: 20.0 mg/kg/injection, schedule: Q02DX008 (oral), vehicle: other 116 % of control | dose: 25.0 mg/kg/injection, schedule: Q01DX001 (ip), vehicle: clinical formulation 123 % of control | dose: 50.0 mg/kg/injection, schedule: Q01DX001 (ip), vehicle: water 111 % of control | dose: 60.0 mg/kg/injection, schedule: Q## X006 (ip), vehicle: water 115 % of control | dose: 80.0 mg/kg/injection, schedule: Q04DX003 (ip), vehicle: saline 100 % of control | dose: 80.0 mg/kg/injection, schedule: Q## X006 (ip), vehicle: water 115 % of control | dose: 200.0 mg/kg/injection, schedule: Q01DX001 (ip), vehicle: saline 96 % of control | dose: 200.0 mg/kg/injection, schedule: Q01DX001 (ip), vehicle: water 109 % of control | dose: 250.0 mg/kg/injection, schedule: Q01DX001 (ip), vehicle: water 117 % of control | dose: 300.0 mg/kg/injection, schedule: Q01DX001 (ip), vehicle: other 101 % of control | dose: 300.0 mg/kg/injection, schedule: Q01DX001 (ip), vehicle: water 96 % of control and 106 % of control
